For 26 molecules, EC50, IC50 and AC50 results are on record in ChEMBL document CHEMBL1201862, “PubChem BioAssay data set” (2004).

SMILES strings stand for the structures. Active and inactive are the calls of the source.

Test [1] is described as follows: growth suppression of beta-catenin-knockout colon cells, dose response, cell-based, HCT116, human colon tumor (AID 1045).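 Note: HCT116 colon tumor cells with beta catenin knocked out; cells exposed to compound for 60 hours.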 The test is classed as functional.
Test [2] is described as follows: growth suppression of PTEN-null colon cells, dose response, cell-based, HCT116 PTEN knockout (AID 1047).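 Note: HCT116 colon tumor cells with PTEN knocked out; cells exposed to compound for 60 hours before readout; potency for loss of cell viability measured by luminescence.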 In kind it is functional.
In another test the test system is H9c2. The test is described as follows: cells. The test is classed as functional, cell-based. The settings on record: Rattus norvegicus, H9c2, Myocardium.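 Note: confirmatory concentration-response retest of ultra-high-throughput screening hits for modulation of myocardial damage; cell death induced by hydrogen peroxide oxidative stress; compound pretreatment for 60 min then peroxide exposure for 2 h; potency is for protecting the cells against peroxide damage rather than for killing them.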
Another test has as its target Cytochrome P450 2D6 (Homo sapiens, UniProt P10635).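 Note: CYP2D6 member of a cytochrome P450 panel assay.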
The next test has as its target Cytochrome P450 2C9 (Homo sapiens, UniProt P11712).
A further test deals with Cytochrome P450 3A4 (Homo sapiens, UniProt P08684).
Cytochrome P450 3A4, sequence (P08684 whole entry): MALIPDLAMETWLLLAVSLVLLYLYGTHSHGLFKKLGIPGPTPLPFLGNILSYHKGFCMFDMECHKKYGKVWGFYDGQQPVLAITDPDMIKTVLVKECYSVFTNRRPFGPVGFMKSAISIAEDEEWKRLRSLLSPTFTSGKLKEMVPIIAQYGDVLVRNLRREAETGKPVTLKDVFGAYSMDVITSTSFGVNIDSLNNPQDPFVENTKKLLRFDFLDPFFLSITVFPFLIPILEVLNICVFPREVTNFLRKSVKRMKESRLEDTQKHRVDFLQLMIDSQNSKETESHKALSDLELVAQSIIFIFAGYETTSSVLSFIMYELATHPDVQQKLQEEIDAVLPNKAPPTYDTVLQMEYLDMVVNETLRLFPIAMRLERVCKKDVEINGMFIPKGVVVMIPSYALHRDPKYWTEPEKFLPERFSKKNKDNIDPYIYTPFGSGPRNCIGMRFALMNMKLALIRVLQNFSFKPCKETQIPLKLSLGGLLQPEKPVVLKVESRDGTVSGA
A further test concerns the target Cytochrome P450 2C19 (Homo sapiens, UniProt P33261). Description: Cytochrome panel assay with activity outcomes. Panel member name: p450-cyp2c19 Compounds with AC50 equal or less than 10 uM are considered active. The test is classed as functional. The settings on record: read-out: AC50.
Test [3] can be described thus: NIH-3T3 fibroblast cytotoxicity, dose response, cytotoxicity control, cell-based, fluorescence, Alamar Blue, secondary assay (AID 2327).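 Note: NIH-3T3 mouse fibroblasts cultured with fluconazole at 8 µg/mL.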 The test is classed as functional. On the technique in general: The colour change of resazurin is a common sign of viable cells or microbes.
A further test deals with T1, Protein RecA (Mycobacterium tuberculosis, UniProt P9WHJ3).
T1 sequence (P9WHJ3 whole entry): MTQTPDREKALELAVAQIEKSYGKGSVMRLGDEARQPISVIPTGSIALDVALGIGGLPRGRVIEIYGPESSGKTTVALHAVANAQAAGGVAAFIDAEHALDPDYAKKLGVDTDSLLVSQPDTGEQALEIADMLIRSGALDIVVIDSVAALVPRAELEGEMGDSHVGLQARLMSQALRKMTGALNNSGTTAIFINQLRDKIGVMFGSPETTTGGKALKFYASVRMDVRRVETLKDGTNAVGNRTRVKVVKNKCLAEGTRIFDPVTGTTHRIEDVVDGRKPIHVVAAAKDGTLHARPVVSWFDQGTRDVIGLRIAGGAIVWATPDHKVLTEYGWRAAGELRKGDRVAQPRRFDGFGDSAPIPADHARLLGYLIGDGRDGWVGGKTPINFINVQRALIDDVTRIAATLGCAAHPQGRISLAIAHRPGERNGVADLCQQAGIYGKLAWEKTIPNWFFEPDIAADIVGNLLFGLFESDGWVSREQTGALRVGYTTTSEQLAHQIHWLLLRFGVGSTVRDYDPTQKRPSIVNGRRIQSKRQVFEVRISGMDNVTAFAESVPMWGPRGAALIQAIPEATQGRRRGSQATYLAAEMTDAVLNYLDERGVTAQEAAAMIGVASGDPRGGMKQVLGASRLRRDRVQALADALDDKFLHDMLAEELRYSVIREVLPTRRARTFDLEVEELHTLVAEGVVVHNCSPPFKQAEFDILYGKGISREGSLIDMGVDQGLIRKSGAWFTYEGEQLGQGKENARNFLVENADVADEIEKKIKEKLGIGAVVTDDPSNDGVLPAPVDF
The test is described as follows: Fluorescence Cell-Free Homogeneous Dose Retest to Identify Inhibitors of RecA-Intein Splicing Activity. [Related pubchem assays (depositor defined):AID2097, AID2223, AID489010, AID492950]. The test is classed as functional.

The target in test [4] is T2, Polyadenylate-binding protein 1 (Homo sapiens, UniProt P11940). Description: PABP1 MLLE–PAM2 interaction inhibitors, dose response, miRNA deadenylation inhibitor project, biochemical, fluorescence polarization, Cy5-PAM2 peptide, secondary (AID 602260). The test is classed as functional. The settings on record: read-out: IC50_Mean. For orientation: Fluorescence polarisation rises when a labelled molecule tumbles more slowly, as on binding a larger partner.
T2 sequence (P11940 whole entry): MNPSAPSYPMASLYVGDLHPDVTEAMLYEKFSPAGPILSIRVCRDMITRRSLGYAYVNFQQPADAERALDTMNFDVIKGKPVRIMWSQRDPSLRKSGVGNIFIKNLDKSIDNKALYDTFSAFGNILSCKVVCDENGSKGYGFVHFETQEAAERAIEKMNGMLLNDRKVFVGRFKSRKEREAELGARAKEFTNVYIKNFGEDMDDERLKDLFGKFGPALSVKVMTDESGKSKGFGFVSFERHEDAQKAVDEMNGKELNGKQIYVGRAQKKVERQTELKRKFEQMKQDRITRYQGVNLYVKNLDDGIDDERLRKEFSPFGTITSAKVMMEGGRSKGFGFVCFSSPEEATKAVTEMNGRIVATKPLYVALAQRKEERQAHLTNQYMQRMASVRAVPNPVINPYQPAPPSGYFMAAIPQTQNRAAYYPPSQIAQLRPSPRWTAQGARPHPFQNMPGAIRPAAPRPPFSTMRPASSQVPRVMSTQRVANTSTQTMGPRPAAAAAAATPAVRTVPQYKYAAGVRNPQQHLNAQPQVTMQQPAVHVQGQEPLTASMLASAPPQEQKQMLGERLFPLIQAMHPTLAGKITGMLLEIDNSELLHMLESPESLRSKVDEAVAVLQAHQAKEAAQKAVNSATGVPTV

The target in test [5] is T3, Replicative DNA helicase DnaB (Mycobacterium tuberculosis, UniProt P9WMR3).
T3 sequence (P9WMR3 whole entry): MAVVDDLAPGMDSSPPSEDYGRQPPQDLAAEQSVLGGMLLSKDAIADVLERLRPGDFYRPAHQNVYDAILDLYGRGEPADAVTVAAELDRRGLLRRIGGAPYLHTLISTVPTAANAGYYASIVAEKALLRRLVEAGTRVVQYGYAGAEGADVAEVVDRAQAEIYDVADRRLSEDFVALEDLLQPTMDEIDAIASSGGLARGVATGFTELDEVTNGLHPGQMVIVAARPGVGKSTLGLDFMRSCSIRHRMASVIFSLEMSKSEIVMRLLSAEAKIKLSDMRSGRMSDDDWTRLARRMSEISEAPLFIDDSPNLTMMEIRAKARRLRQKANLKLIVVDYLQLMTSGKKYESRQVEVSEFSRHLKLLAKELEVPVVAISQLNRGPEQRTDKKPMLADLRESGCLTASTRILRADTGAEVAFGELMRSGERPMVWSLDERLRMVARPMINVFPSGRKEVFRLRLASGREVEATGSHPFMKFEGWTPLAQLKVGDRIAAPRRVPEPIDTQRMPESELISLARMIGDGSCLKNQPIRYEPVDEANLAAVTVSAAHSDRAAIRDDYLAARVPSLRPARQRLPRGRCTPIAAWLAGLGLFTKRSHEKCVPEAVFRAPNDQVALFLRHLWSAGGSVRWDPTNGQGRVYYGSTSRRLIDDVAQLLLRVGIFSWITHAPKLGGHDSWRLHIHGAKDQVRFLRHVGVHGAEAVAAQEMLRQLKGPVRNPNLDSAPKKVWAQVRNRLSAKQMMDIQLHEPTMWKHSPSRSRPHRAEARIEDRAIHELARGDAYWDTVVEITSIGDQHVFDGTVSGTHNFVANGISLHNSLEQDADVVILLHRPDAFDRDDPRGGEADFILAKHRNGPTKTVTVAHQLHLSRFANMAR
The test is described as follows: DnaB intein splicing inhibitors, dose response, biochemical, cell-free fluorescence (AID 449749). In kind it is functional.

For test [6], the target named is T2, Polyadenylate-binding protein 1. The test is described as follows: PABP1 MLLE–PAM2 binding inhibitor potency, dose response, biochemical, fluorescence polarization, FITC-PAM2 peptide (AID 602259). The test is classed as functional. The settings on record: read-out: IC50_Mean.

Cytochrome P450 2C9, sequence (P11712 whole entry): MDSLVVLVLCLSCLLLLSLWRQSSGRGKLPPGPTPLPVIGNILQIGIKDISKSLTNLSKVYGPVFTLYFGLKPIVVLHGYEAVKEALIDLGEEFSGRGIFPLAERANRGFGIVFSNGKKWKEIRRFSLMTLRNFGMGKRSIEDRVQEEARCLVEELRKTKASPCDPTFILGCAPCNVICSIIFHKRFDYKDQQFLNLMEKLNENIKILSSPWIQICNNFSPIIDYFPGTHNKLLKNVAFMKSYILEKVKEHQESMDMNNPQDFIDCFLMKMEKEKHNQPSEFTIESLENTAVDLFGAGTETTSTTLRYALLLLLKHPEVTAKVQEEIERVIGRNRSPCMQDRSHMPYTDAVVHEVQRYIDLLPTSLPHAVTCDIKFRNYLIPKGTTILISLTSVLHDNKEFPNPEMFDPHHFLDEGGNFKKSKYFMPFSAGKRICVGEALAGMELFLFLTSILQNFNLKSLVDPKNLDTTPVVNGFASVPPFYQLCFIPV
Cytochrome P450 2C19, sequence (P33261 whole entry): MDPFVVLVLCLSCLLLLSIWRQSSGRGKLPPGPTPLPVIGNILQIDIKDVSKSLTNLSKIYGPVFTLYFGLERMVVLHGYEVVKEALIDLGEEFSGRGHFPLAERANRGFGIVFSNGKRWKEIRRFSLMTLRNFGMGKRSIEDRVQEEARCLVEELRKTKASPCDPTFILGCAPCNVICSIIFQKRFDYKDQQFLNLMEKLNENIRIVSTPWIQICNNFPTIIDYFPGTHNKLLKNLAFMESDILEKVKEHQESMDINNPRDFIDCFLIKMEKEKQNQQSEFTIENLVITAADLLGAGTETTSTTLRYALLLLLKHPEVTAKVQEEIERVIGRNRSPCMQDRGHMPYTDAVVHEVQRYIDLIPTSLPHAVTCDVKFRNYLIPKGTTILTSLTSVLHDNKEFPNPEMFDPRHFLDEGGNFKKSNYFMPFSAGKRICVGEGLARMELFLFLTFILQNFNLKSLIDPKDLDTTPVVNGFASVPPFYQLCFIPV
Cytochrome P450 2D6, sequence (P10635 whole entry): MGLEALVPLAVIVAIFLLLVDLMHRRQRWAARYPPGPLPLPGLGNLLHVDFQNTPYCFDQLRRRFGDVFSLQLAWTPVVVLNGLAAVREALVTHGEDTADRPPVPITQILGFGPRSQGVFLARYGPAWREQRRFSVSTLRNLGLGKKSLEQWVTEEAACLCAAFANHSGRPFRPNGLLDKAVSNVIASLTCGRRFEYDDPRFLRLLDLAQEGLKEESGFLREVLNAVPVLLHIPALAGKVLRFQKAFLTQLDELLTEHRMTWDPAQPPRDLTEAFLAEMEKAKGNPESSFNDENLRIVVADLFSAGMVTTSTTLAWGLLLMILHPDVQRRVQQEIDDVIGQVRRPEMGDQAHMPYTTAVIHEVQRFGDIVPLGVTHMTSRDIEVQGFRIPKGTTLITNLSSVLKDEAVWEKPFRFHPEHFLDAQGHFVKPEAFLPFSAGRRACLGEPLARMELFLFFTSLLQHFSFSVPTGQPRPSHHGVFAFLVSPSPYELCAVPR

In the case of `O=C(Nc1ccc(F)cc1)c1cnc(-c2ccccc2)nc1-c1ccccc1`, the half-maximal effective concentration (EC50) in [1] was 9.24 µM (active); in test [2], 10 µM (active).

For the molecule `Nc1c(C(=O)NC2CCCC2)c2nc3ccccc3nc2n1N`, in the test with H9c2, the IC50 was > 79 µM (inactive).

On to `Cn1c(SCc2nc3ccccc3n2CCO)nc2ccccc21`, for which the half-maximal activity concentration (AC50) at Cytochrome P450 2D6 is 20 µM (inconclusive).

As to `COC(=O)[C@@]1(Cc2ccccc2)[C@H]2c3cc(C(=O)N(C)C)n(Cc4ccccc4)c3C[C@H]2CN1C(=O)c1ccccc1`, at Cytochrome P450 2D6, the concentration at half-maximal activity (AC50) was 39.8 µM (inconclusive).

With `CSc1nc2ccccc2cc1/C=C(\C#N)c1cccc(C)c1`, the half-maximal activity concentration (AC50) is 6.31 µM (inconclusive) on Cytochrome P450 2D6, 31.6 µM (inconclusive) on Cytochrome P450 2C9 and 25.1 µM (inconclusive) on Cytochrome P450 3A4.

As to `CC(C)c1cccc2c([Si](C)(C)C)c3c(nc12)-c1cccc(=O)n1C3`, on Cytochrome P450 2D6, the AC50 is 20 µM (inconclusive).

`CCC(=O)Oc1ccc2c(C)cc(=O)oc2c1C`: the IC50 in the test on H9c2 is 74.2 µM (inactive).

In the case of `COc1cccc(-c2nc(NCc3cnc(C)cn3)c3ccccc3n2)c1`, the results for the AC50 on Cytochrome P450 2D6 and on Cytochrome P450 2C19 were 39.8 µM (inconclusive) and 25.1 µM (inconclusive), respectively.

For `O=C(Oc1ccccc1)N1CCC2(CC1)CCN(c1ccncc1)CC2`, the concentration at half-maximal activity (AC50) is 39.8 µM (inconclusive) on Cytochrome P450 2D6 and 20 µM (inconclusive) at Cytochrome P450 2C9.

Consider `COc1cc(C(=O)Nc2cc3c(cc2N2CCCCC2)n(C)c(=O)n3C)cc(OC)c1OC`, for which the IC50 in the test on H9c2 is 8.81 µM (active).

Regarding `COCc1nnc(NC(=O)c2ccc(S(=O)(=O)N3CCCCCC3)cc2)o1`, in test [3], the EC50 is > 160 µM (inactive).

Consider `CN(C)c1ncc2nc(-c3ccc(Cl)cc3)c(=O)n(C[C@H]3CCCO3)c2n1`, for which, at Cytochrome P450 2D6, the AC50 was 1.58 µM (inconclusive).

For `CCN1CCN(c2nc3ccccc3nc2C(C#N)C(=O)OC2CCCCC2)CC1` (centres undefined), the values for the AC50 at Cytochrome P450 2D6, on Cytochrome P450 2C19 and on Cytochrome P450 2C9 were 28.2 µM (inconclusive), 39.8 µM (inconclusive) and 39.8 µM (inconclusive), respectively.

Consider `CCOC(=O)CNc1nnc(SCC(=O)OCC)[nH]c1=O`, for which the EC50 on Protein RecA was 0.845 µM (active). In addition, the IC50 in test [4] and in test [6] was > 66 µM (inactive) in each case. Besides, the AC50 in test [5] is 8.14 µM (active).

As to `Cc1noc(C)c1-c1nc(N(C)C)c2ccccc2n1`, the AC50 on Cytochrome P450 2D6 was 20 µM (inconclusive); on Cytochrome P450 2C19, 25.1 µM (inconclusive); on Cytochrome P450 3A4, 15.8 µM (inconclusive).

`COc1ccc(COc2cc(-c3cccc(OC)c3)nc3ccc(NC(=O)c4cccnc4)cc23)cc1`: in the test with H9c2, the IC50 is > 79 µM (inactive).

With `CCOC(=O)c1cnc2ccc(C(=O)OC)cc2c1NCCc1ccc(OC)c(OC)c1`, the IC50 in the test with H9c2 was > 79 µM (inactive).

For the molecule `CCC(Sc1nc2cc3c(cc2c(=O)n1Cc1ccco1)OCO3)C(=O)Nc1ccccc1OC` (centres undefined), the half-maximal activity concentration (AC50) on Cytochrome P450 2D6 is 5.01 µM (inconclusive).

In the case of `COC(=O)c1[nH]c2c(c1C)C(=O)CC(c1cc(OC)ccc1OC)C2` (centres undefined), the IC50 in the test with H9c2 is > 79 µM (inactive).

For `COCCNc1ncnc2ccc(-c3ccccc3C(F)(F)F)cc12`, the AC50 on Cytochrome P450 2D6 was 39.8 µM (inconclusive).

As for `Cc1ccccc1NC(=O)COC(=O)CCc1nc(O)c2ccccc2n1`, the IC50 in the test on H9c2 was 10.1 µM (active).

Consider `CCN(C[C@H]1N[C@@](CC)(C(=O)OC)[C@H]2C(=O)N(Cc3ccccc3)C(=O)[C@@H]12)S(=O)(=O)c1ccc(F)cc1`, for which the IC50 with H9c2 was 13.9 µM (active).

Turning to `CC(=O)c1cccc(-c2cnc3c(NC=O)cc(-c4ccc(F)cc4)cn23)c1`, the IC50 in the test with H9c2 was > 79 µM (inactive).

In the case of `COc1nc(N/N=C/c2cc3c(cc2Br)OCO3)nc(N2CCOCC2)n1`, the IC50 in the test on H9c2 was > 79 µM (inactive).

Turning to `COc1cc(/C=N/NC(=O)c2ccncc2)ccc1OCC(=O)Nc1ccc(C)c(C)c1`, the IC50 in the test on H9c2 was > 79 µM (inactive).

Turning to `COc1ccc(C(=O)c2ccccc2)c(O)c1` [OXYBENZONE], the AC50 on Cytochrome P450 2D6 was 12.6 µM (inconclusive); at Cytochrome P450 2C19, 0.398 µM (inconclusive).

One may read the EC50 as the concentration needed to bring the measured effect to its halfway point. One may read the AC50 as the concentration at which the activity in the assay is half-maximal.
